# “Also recorded” adds a separate entry of the source. Ends that are not written are not given here.
# How the values were obtained:
# [1] = system: laser-induced wet AMD mouse model; assay: Laser induced choroidal neovascularization (CNV), mouse; format: in vivo, C57BL/6 mice; conditions: 10 mg/kg intraperitoneal twice a day for 10 days; vs vehicle
# Experimental: The 8-week-old female C57BL/6 mice were anaesthetized by injecting intraperitoneally a mixture of zoletil (6 mg/kg) and xylazine (3 mg/kg). The retina was viewed through a slit lamp microscope, and the optic nerve head was placed in the center of the microscope field. Both eyes received 3 or 4 laser burns around the optic nerve head using the diode laser (lesion diameter 50 μm; duration 100 ms; energy 250 mW). The formation of a blister indicates rupture of the Bruch's membrane after laser application. DMSO Vehicle or 7-mer (10 mg/kg; n≥10 per peptide) were administered by intraperitoneal injections twice a day for 10 days. Fluorescein fundus images were taken about 5 minutes after intraperitoneal injection of 0.1 mL of 100 mg/ml Fluorescein (10% w/v). During this period, the size of fluorescein leakage spots was relatively stable. The leakage of each CNV lesion was graded by a retina specialist according to the method described by Sheets et al. (Molecular Vision 2010; 16:320-329). […]
# Wet type age-related macular degeneration (AMD) is characterized by extensive growth of new vessels in retina. […] Newly formed microvessels with clear fluorescein leakage in retina were assessed by fundus fluorescein angiography 10 days post laser treatment, and results are provided in the photographs of FIG. 13.
# B16-F10 melanoma cells = assay: Experimental pulmonary metastasis in mice; format: in vivo, C57BL/6 mice
# Summary of the method: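 Female C57BL/6 mice (6 weeks) received 2×10^5 B16-F10 cells i.v. via tail vein. Peptide, control peptide (10 mg/kg) or DMSO vehicle given i.p. every 2 days, 5 mice per group. Visible surface lung colonies counted under a dissecting microscope on day 8.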
# HUVECs [2] = assay: Apoptosis assay (annexin V-FITC); format: cell-based; conditions: treatment for 16 hrs; annexin V-FITC staining
# Experimental: The percentage of apoptotic HUVEC cells was assayed using TACS annexin V-FITC kit. The percentage of annexin V-positive cells was determined using in situ staining according to the manufacturer's instruction. The cell number was determined by counterstaining with Hoechst 33342. The nuclei in ten randomly selected fields of the three different chambers (˜7200 cells) were counted. Specimens were examined and photographed on a Zeiss epifluorescence microscope (×100, 10 fields/sample). Pictures were recorded on Zeiss software.
# HUVECs [3] = assay: Endothelial cell capillary-like tube formation assay; format: cell-based
# [4] = system: STZ-induced diabetic mice; assay: Vascular abnormalities in the retina of diabetic mice; format: in vivo
# Summary of the method: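 Diabetes induced by single i.p. STZ 150 mg/kg; mice with non-fasting glucose >500 mg/dl after 1 week used. Peptide 10 mg/kg or DMSO vehicle i.p. twice daily for 24 h, then BSA-FITC 100 mg/kg i.p. for 30 min; retinal lesions counted on flat mounts (average lesions/retina), FITC-BSA leakage by fluorometry (ex 488/em 535 nm) normalized to non-injected control retina.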
# [5] = system: VEGF-induced corneal neovascularization; assay: Mouse corneal angiogenesis assay; format: in vivo, C57BL/6 mice; conditions: VEGF 200 ng; peptide 2.5 μg in micropellet
# Experimental: Briefly, corneal micropockets were created on 6-week-old C57BL/6 mice by use of a needle. A micropellet of sucrose aluminum sulfate and hydron polymer containing 200 ng VEGF with or without 2.5 μg peptide was plated into each corneal pocket. Eyes were then photographed by a slit-lamp biomicroscope on day 7 after micropellet implantation. Ingrowth of the blood vessels into avascular cornea toward pellet was scored as positive response. The results were reported as positive corneas of total implant.
substance,measurement,setting,value
"NH2-Asp-Leu-Tyr-Arg-Val-Arg-Ser-COOH (DLYRVRS; not fully specified (N-terminus, C-terminus); printed as NH2-Asp-Leu-Tyr-Arg-Val-Arg-Ser-COOH) [7-mer]","CNV lesion grades, severity distribution",[1],lower severity distribution of CNV
same,effect on number of colonies on the surface of the lung / in vivo metastasis,B16-F10 melanoma cells; 10 mg/Kg intraperitoneal every 2 days,capable of reducing the number of colonies; also recorded: may suppress in vivo metastasis
same,No. lung colonies,"B16-F10 melanoma cells; 10 mg/Kg intraperitoneal every 2 days, day 8, n = 5",72 ± 16.0
same,Inhibition (%),"B16-F10 melanoma cells; lung colonies vs vehicle, 10 mg/Kg",67.9%
same,percentage of apoptotic HUVECs,HUVECs [2],32.4±3.8%
same,effect on VEGF-induced tube formation,"HUVECs [3]; HUVECs, VEGF, 6 hrs",inhibited
same,Tube length (Fold),"HUVECs [3]; VEGF (10 ng/mL) + 25 μM peptide, vs untreated HUVECs",1.24 ± 0.23 Fold
same,extravasation of FITC-BSA,[4],may significantly prevent
same,number of vascular lesions in retina,"[4]; 10 mg/kg intraperitoneal twice a day, 24 h",1.8±0.54
same,hemorrhage in the retinal parenchyma,[4]; intraperitoneal,successfully blocked
same,Fluorescence Intensity (Fold),"[4]; leaked FITC-BSA in entire retina, vs vehicle",0.29 ± 0.076 Fold
same,VEGF-induced neovascularization in the cornea,[5],completely abolished

# From patent US10463709B2, “Short synthetic peptide for treating diseases and/or conditions related to angiogenesis” (MacKay Memorial Hospital, priority 2015, dated 2019)
